{
  "source": "patent US4163799A",
  "about": "“Psychostimulant compounds” (Union Chimique Continentale U.C.C., priority 1975, dated 1979)",
  "origin": "cited, not measured here",
  "conditions": "caffeine, comparison in words, no test described; cited from earlier work",
  "data": [
    {"compound": "Cn1c(=O)c2c(ncn2C)n(C)c1=O", "note": "[caffeine]", "values": [
      {"measurement": "antihypnotic effect", "result": "does"}
    ]}
  ]
}
